Measurements from ChEMBL document CHEMBL1156230, “Identification of phenylsulfone-substituted quinoxaline (WYE-672) as a tissue selective liver X-receptor (LXR) agonist” (J Med Chem, 2010).
Blank lines part the entries; values can stand above or below the compound they belong to. Calls of active or inactive are those of the source. The rule behind the calls is not given here.

Columns and labels:
Mus musculus [1] = assay: Antiatherosclerotic activity against high fat/high cholesterol fed LDLR-deficient mouse assessed as abcg5 gene regulation at 0.6 mg/kg administered with diet for 7 days by Experion chip analysis; assay type: functional, organism-based; parameters: dose 0.6 mg/kg
Mus musculus [2] = assay: Antiatherosclerotic activity against high fat/high cholesterol fed LDLR-deficient mouse assessed as abcg5 gene regulation at 3 mg/kg administered with diet for 8 weeks by Experion chip analysis
Mus musculus [3] = assay: Antiatherosclerotic activity against high fat/high cholesterol fed LDLR-deficient mouse assessed as srebf1 gene regulation at 3 mg/kg administered with diet for 7 days by Experion chip analysis; assay type: functional, organism-based; parameters: dose 3 mg/kg
Mus musculus [4] = assay: Antiatherosclerotic activity against high fat/high cholesterol fed LDLR-deficient mouse assessed as Lipc gene regulation at 10 mg/kg administered with diet for 7 days by Experion chip analysis; assay type: functional, organism-based; parameters: dose 10 mg/kg
Mus musculus [5] = assay: Antiatherosclerotic activity against high fat/high cholesterol fed LDLR-deficient mouse assessed as scab1 gene regulation at 10 mg/kg administered with diet for 7 days by Experion chip analysis; assay type: functional, organism-based; parameters: dose 10 mg/kg
Mus musculus [6] = assay: Antiatherosclerotic activity against high fat/high cholesterol fed LDLR-deficient mouse assessed as abcg1 gene regulation at 3 mg/kg administered with diet for 8 weeks by Experion chip analysis
Mus musculus [7] = assay: Antiatherosclerotic activity against high fat/high cholesterol fed LDLR-deficient mouse assessed as scd1 gene regulation at 0.6 mg/kg administered with diet for 7 days by Experion chip analysis; assay type: functional, organism-based; parameters: dose 0.6 mg/kg
Mus musculus [8] = assay: Antiatherosclerotic activity against high fat/high cholesterol fed LDLR-deficient mouse assessed as abcg8 gene regulation at 3 mg/kg administered with diet for 8 weeks by Experion chip analysis
Mus musculus [9] = assay: Antiatherosclerotic activity against high fat/high cholesterol fed LDLR-deficient mouse assessed as Fasn gene regulation at 10 mg/kg administered with diet for 7 days by Experion chip analysis; assay type: functional, organism-based; parameters: dose 10 mg/kg
Mus musculus [10] = assay: Antiatherosclerotic activity against high fat/high cholesterol fed LDLR-deficient mouse assessed as apoc1 gene regulation at 3 mg/kg administered with diet for 7 days by Experion chip analysis; assay type: functional, organism-based; parameters: dose 3 mg/kg
Mus musculus [11] = assay: Antiatherosclerotic activity against high fat/high cholesterol fed LDLR-deficient mouse assessed as abcg8 gene regulation at 10 mg/kg administered with diet for 7 days by Experion chip analysis; assay type: functional, organism-based; parameters: dose 10 mg/kg
[12] = Tmax in C57 mouse at 10 mg/kg, po; assay type: ADME, organism-based; parameters: dose 10 mg/kg, route oral; conditions: in vivo
Mus musculus [13] = assay: Antiatherosclerotic activity against high fat/high cholesterol fed LDLR-deficient mouse assessed as apoe gene regulation at 0.6 mg/kg administered with diet for 7 days by Experion chip analysis; assay type: functional, organism-based; parameters: dose 0.6 mg/kg
Mus musculus [14] = assay: Antiatherosclerotic activity against high fat/high cholesterol fed LDLR-deficient mouse assessed as Fasn gene regulation at 3 mg/kg administered with diet for 7 days by Experion chip analysis; assay type: functional, organism-based; parameters: dose 3 mg/kg
Mus musculus [15] = assay: Antiatherosclerotic activity against high fat/high cholesterol fed LDLR-deficient mouse assessed as apoe gene regulation at 10 mg/kg administered with diet for 7 days by Experion chip analysis; assay type: functional, organism-based; parameters: dose 10 mg/kg
Mus musculus [16] = assay: Antiatherosclerotic activity against high fat/high cholesterol fed LDLR-deficient mouse macrophages assessed as induction of ABCA1 expression at 0.6 mg/kg administered with diet for 8 weeks; assay type: functional, organism-based; parameters: dose 0.6 mg/kg
Mus musculus [17] = assay: Antiatherosclerotic activity against high fat/high cholesterol fed LDLR-deficient mouse duodenum assessed as induction of ABCA1 expression at 3 mg/kg administered with diet for 8 weeks; assay type: functional, organism-based; parameters: dose 3 mg/kg
Mus musculus [18] = assay: Antiatherosclerotic activity against high fat/high cholesterol fed LDLR-deficient mouse assessed as Fasn gene regulation at 0.6 mg/kg administered with diet for 7 days by Experion chip analysis; assay type: functional, organism-based; parameters: dose 0.6 mg/kg
Mus musculus [19] = assay: Antiatherosclerotic activity against high fat/high cholesterol fed LDLR-deficient mouse duodenum assessed as induction of SREBP-1c expression at 0.6 mg/kg administered with diet for 8 weeks; assay type: functional, organism-based; parameters: dose 0.6 mg/kg
Mus musculus [20] = assay: Antiatherosclerotic activity against high fat/high cholesterol fed LDLR-deficient mouse assessed as pcsk9 gene regulation at 10 mg/kg administered with diet for 7 days by Experion chip analysis; assay type: functional, organism-based; parameters: dose 10 mg/kg
Mus musculus [21] = assay: Antiatherosclerotic activity against high fat/high cholesterol fed LDLR-deficient mouse duodenum assessed as induction of ABCA1 expression at 0.6 mg/kg administered with diet for 8 weeks; assay type: functional, organism-based; parameters: dose 0.6 mg/kg
[22] = AUC (0 to infinity) in C57 mouse at 10 mg/kg, po; assay type: ADME, organism-based; parameters: time infinity, dose 10 mg/kg, route oral; conditions: plasma
Mus musculus [23] = assay: Antiatherosclerotic activity against high fat/high cholesterol fed LDLR-deficient mouse assessed as cyp7a1 gene regulation at 3 mg/kg administered with diet for 7 days by Experion chip analysis; assay type: functional, organism-based; parameters: dose 3 mg/kg
Mus musculus [24] = assay: Antiatherosclerotic activity against high fat/high cholesterol fed LDLR-deficient mouse assessed as apo5 gene regulation at 3 mg/kg administered with diet for 7 days by Experion chip analysis; assay type: functional, organism-based; parameters: dose 3 mg/kg
Mus musculus [25] = assay: Antiatherosclerotic activity against high fat/high cholesterol fed LDLR-deficient mouse assessed as abcg1 gene regulation at 0.6 mg/kg administered with diet for 7 days by Experion chip analysis; assay type: functional, organism-based; parameters: dose 0.6 mg/kg
Mus musculus [26] = assay: Antiatherosclerotic activity against high fat/high cholesterol fed LDLR-deficient mouse assessed as Irp1 gene regulation at 3 mg/kg administered with diet for 7 days by Experion chip analysis; assay type: functional, organism-based; parameters: dose 3 mg/kg
Mus musculus [27] = assay: Antiatherosclerotic activity against high fat/high cholesterol fed LDLR-deficient mouse assessed as ldlr gene regulation at 10 mg/kg administered with diet for 7 days by Experion chip analysis; assay type: functional, organism-based; parameters: dose 10 mg/kg
Mus musculus [28] = assay: Antiatherosclerotic activity against high fat/high cholesterol fed LDLR-deficient mouse assessed as Lipc gene regulation at 3 mg/kg administered with diet for 7 days by Experion chip analysis; assay type: functional, organism-based; parameters: dose 3 mg/kg
Mus musculus [29] = assay: Antiatherosclerotic activity against high fat/high cholesterol fed LDLR-deficient mouse assessed as pcsk9 gene regulation at 3 mg/kg administered with diet for 7 days by Experion chip analysis; assay type: functional, organism-based; parameters: dose 3 mg/kg
Mus musculus [30] = assay: Antiatherosclerotic activity against high fat/high cholesterol fed LDLR-deficient mouse assessed as scd1 gene regulation at 10 mg/kg administered with diet for 7 days by Experion chip analysis; assay type: functional, organism-based; parameters: dose 10 mg/kg
Mus musculus [31] = assay: Antiatherosclerotic activity against high fat/high cholesterol fed LDLR-deficient mouse assessed as ldlr gene regulation at 3 mg/kg administered with diet for 7 days by Experion chip analysis; assay type: functional, organism-based; parameters: dose 3 mg/kg
Mus musculus [32] = assay: Antiatherosclerotic activity against high fat/high cholesterol fed LDLR-deficient mouse assessed as lipg gene regulation at 0.6 mg/kg administered with diet for 7 days by Experion chip analysis; assay type: functional, organism-based; parameters: dose 0.6 mg/kg
Mus musculus [33] = assay: Antiatherosclerotic activity against high fat/high cholesterol fed LDLR-deficient mouse assessed as lipg gene regulation at 10 mg/kg administered with diet for 7 days by Experion chip analysis; assay type: functional, organism-based; parameters: dose 10 mg/kg
Mus musculus [34] = assay: Antiatherosclerotic activity against high fat/high cholesterol fed LDLR-deficient mouse assessed as apoc1 gene regulation at 0.6 mg/kg administered with diet for 7 days by Experion chip analysis; assay type: functional, organism-based; parameters: dose 0.6 mg/kg
Mus musculus [35] = species on record: Mus musculus; assay: Antiatherosclerotic activity against high fat/high cholesterol fed LDLR-deficient mouse assessed as reduction in plasma triglyceride level; assay type: functional, organism-based
Mus musculus [36] = assay: Antiatherosclerotic activity against high fat/high cholesterol fed LDLR-deficient mouse duodenum assessed as induction of ABCG5 expression at 0.6 mg/kg administered with diet for 8 weeks; assay type: functional, organism-based; parameters: dose 0.6 mg/kg
Mus musculus [37] = assay: Antiatherosclerotic activity against high fat/high cholesterol fed LDLR-deficient mouse duodenum assessed as induction of ABCG8 expression at 0.6 mg/kg administered with diet for 8 weeks; assay type: functional, organism-based; parameters: dose 0.6 mg/kg
Mus musculus [38] = assay: Antiatherosclerotic activity against high fat/high cholesterol fed LDLR-deficient mouse assessed as pcsk9 gene regulation at 0.6 mg/kg administered with diet for 7 days by Experion chip analysis; assay type: functional, organism-based; parameters: dose 0.6 mg/kg
Mus musculus [39] = assay: Antiatherosclerotic activity against high fat/high cholesterol fed LDLR-deficient mouse duodenum assessed as induction of ABCG8 expression at 10 mg/kg administered with diet for 8 weeks; assay type: functional, organism-based; parameters: dose 10 mg/kg

Tmax [12]: 4 h | AUC(0-inf) [22]: 2440 ng·h/mL
SMILES: Cc1nc2c(C(F)(F)F)cccc2nc1-c1ccc(-c2cccc(S(C)(=O)=O)c2)cc1
Activity (Mus musculus [1]): Active | Activity (Mus musculus [2]): Active | Activity (Mus musculus [3]): inactive | Activity (Mus musculus [4]): Active | Activity (Mus musculus [5]): Active | Activity (Mus musculus [6]): Active | Activity (Mus musculus [7]): Active | Activity (Mus musculus [8]): Active | Activity (Mus musculus [9]): Active | Activity (Mus musculus [10]): Active | Activity (Mus musculus [11]): Active | Activity (Mus musculus [13]): Active | Activity (Mus musculus [14]): Active | Activity (Mus musculus [15]): Active | Activity (Mus musculus [16]): Active | Activity (Mus musculus [17]): Active | Activity (Mus musculus [18]): Active | Activity (Mus musculus [19]): inactive | Activity (Mus musculus [20]): Active | Activity (Mus musculus [21]): Active | Activity (Mus musculus [23]): Active | Activity (Mus musculus [24]): Active | Activity (Mus musculus [25]): Active | Activity (Mus musculus [26]): Active | Activity (Mus musculus [27]): Active | Activity (Mus musculus [28]): Active | Activity (Mus musculus [29]): Active | Activity (Mus musculus [30]): Active | Activity (Mus musculus [31]): Active | Activity (Mus musculus [32]): Active | Activity (Mus musculus [33]): Active | Activity (Mus musculus [34]): Active | Activity (Mus musculus [35]): inactive | Activity (Mus musculus [36]): Active | Activity (Mus musculus [37]): Active | Activity (Mus musculus [38]): Active | Activity (Mus musculus [39]): Active

SMILES: O=C(O)Cc1cccc(OCCCN(Cc2cccc(C(F)(F)F)c2Cl)CC(c2ccccc2)c2ccccc2)c1
Activity (Mus musculus [1]): Active | Activity (Mus musculus [2]): Active | Activity (Mus musculus [3]): inactive | Activity (Mus musculus [4]): Active | Activity (Mus musculus [5]): Active | Activity (Mus musculus [6]): Active | Activity (Mus musculus [7]): Active | Activity (Mus musculus [8]): Active | Activity (Mus musculus [9]): Active | Activity (Mus musculus [10]): Active | Activity (Mus musculus [11]): Active | Activity (Mus musculus [13]): Active | Activity (Mus musculus [14]): Active | Activity (Mus musculus [15]): Active | Activity (Mus musculus [16]): Active | Activity (Mus musculus [17]): Active | Activity (Mus musculus [18]): Active | Activity (Mus musculus [19]): Active | Activity (Mus musculus [20]): Active | Activity (Mus musculus [21]): Active | Activity (Mus musculus [23]): Active | Activity (Mus musculus [24]): Active | Activity (Mus musculus [25]): Active | Activity (Mus musculus [26]): Active | Activity (Mus musculus [27]): Active | Activity (Mus musculus [28]): Active | Activity (Mus musculus [29]): Active | Activity (Mus musculus [30]): Active | Activity (Mus musculus [31]): Active | Activity (Mus musculus [32]): Active | Activity (Mus musculus [33]): Active | Activity (Mus musculus [34]): Active | Activity (Mus musculus [35]): inactive | Activity (Mus musculus [36]): Active | Activity (Mus musculus [37]): Active | Activity (Mus musculus [38]): Active | Activity (Mus musculus [39]): Active
